US4471131A, “Novel silyl esters of N-phosphonomethylglycine” (Monsanto Company, priority 1983, dated 1984)

Experiments:
Assay in all cases: post-emergence herbicidal activity, greenhouse
Type in all cases: in vivo
[1] = test system: Panicum Spp; conditions: Table III
Outline: (§1)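 After sowing in soil-filled pans and growing under greenhouse conditions, plants at two to three weeks were sprayed post-emergence with the test compound in a formulation containing approximately 0.4% emulsifier by weight. Observations of plant injury, relative to controls, followed at about two and four weeks.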

[2] = test system: Pennsylvania Smartweed
Outline: as §1

[3] = test system: Common Lambsquarters
Outline: as §1

[4] = test system: Downy Brome
Outline: as §1

[5] = Table II, 2 WAT, 5.6 kg/h, formulated in anhydrous tetrahydrofuran
[6] = Table II, 2 WAT, 11.2 kg/h, formulated in anhydrous tetrahydrofuran
[7] = Table II, 4 WAT, 5.6 kg/h, formulated in anhydrous tetrahydrofuran
[8] = Table II, 4 WAT, 11.2 kg/h, formulated in anhydrous tetrahydrofuran
[9] = Table III, 2 WAT, 1.1 kg/h, formulated in anhydrous tetrahydrofuran
[10] = Table III, 2 WAT, .28 kg/h, formulated in anhydrous tetrahydrofuran
[11] = Table III, 4 WAT, 1.1 kg/h, formulated in anhydrous tetrahydrofuran
[12] = Table III, 4 WAT, .28 kg/h, formulated in anhydrous tetrahydrofuran
[13] = Table III, 2 WAT, 5.6 kg/h, formulated in anhydrous tetrahydrofuran
[14] = Table III, 4 WAT, 5.6 kg/h, formulated in anhydrous tetrahydrofuran

CCCCOC(=O)CNCP(=O)(O)O[Si](c1ccccc1)(c1ccccc1)C(C)(C)C [Ex. 6, Glycine, N--((([(1,1-Dimethylethyl)Diphenylsilyl]Oxy)Hydroxyphosphinyl)methyl)-Butyl Ester]
Plant Response Index (S) ([1]; 2 WAT, 1.1 kg/h): 3 (75-99% inhibition) | Plant Response Index (S) ([1]; 2 WAT, 1.1 kg/h, formulated in anhydrous tetrahydrofuran): 2 (50-74% inhibition) | Plant Response Index (S) ([1]; 2 WAT, 5.6 kg/h): 4 (100% inhibition) | Plant Response Index (S) ([1]; 2 WAT, 5.6 kg/h, formulated in anhydrous tetrahydrofuran): 2 (50-74% inhibition) | Plant Response Index (S) ([1]; 2 WAT, .28 kg/h): 2 (50-74% inhibition) | Plant Response Index (S) ([1]; 2 WAT, .28 kg/h, formulated in anhydrous tetrahydrofuran): 0 (0-24% inhibition) | Plant Response Index (S) ([1]; 4 WAT, 1.1 kg/h): 3 (75-99% inhibition) | Plant Response Index (S) ([1]; 4 WAT, 1.1 kg/h, formulated in anhydrous tetrahydrofuran): 2 (50-74% inhibition) | Plant Response Index (S) ([1]; 4 WAT, 5.6 kg/h): 4 (100% inhibition) | Plant Response Index (S) ([1]; 4 WAT, 5.6 kg/h, formulated in anhydrous tetrahydrofuran): 3 (75-99% inhibition) | Plant Response Index (S) ([1]; 4 WAT, .28 kg/h, formulated in anhydrous tetrahydrofuran): 0 (0-24% inhibition) | Plant Response Index (F) ([2]; Table II, 2 WAT, 5.6 kg/h): 0 (0-24% inhibition) | Plant Response Index (F) [2, 5]: 0 (0-24% inhibition) | Plant Response Index (F) ([2]; Table II, 2 WAT, 11.2 kg/h): 2 (50-74% inhibition) | Plant Response Index (F) [2, 6]: 0 (0-24% inhibition) | Plant Response Index (F) ([2]; Table II, 4 WAT, 5.6 kg/h): 0 (0-24% inhibition) | Plant Response Index (F) [2, 7]: 0 (0-24% inhibition) | Plant Response Index (F) ([2]; Table II, 4 WAT, 11.2 kg/h): 2 (50-74% inhibition) | Plant Response Index (F) [2, 8]: 0 (0-24% inhibition) | Plant Response Index (F) ([2]; Table III, 2 WAT, 1.1 kg/h): 2 (50-74% inhibition) | Plant Response Index (F) [2, 9]: 3 (75-99% inhibition) | Plant Response Index (F) ([2]; Table III, 2 WAT, 5.6 kg/h): 3 (75-99% inhibition) | Plant Response Index (F) ([2]; Table III, 2 WAT, .28 kg/h): 3 (75-99% inhibition) | Plant Response Index (F) [2, 10]: 1 (25-49% inhibition) | Plant Response Index (F) ([2]; Table III, 4 WAT, 1.1 kg/h): 3 (75-99% inhibition) | Plant Response Index (F) [2, 11]: 4 (100% inhibition) | Plant Response Index (F) ([2]; Table III, 4 WAT, 5.6 kg/h): 3 (75-99% inhibition) | Plant Response Index (F) [2, 12]: 1 (25-49% inhibition) | Plant Response Index (E) ([3]; Table II, 2 WAT, 5.6 kg/h): 2 (50-74% inhibition) | Plant Response Index (E) [3, 5]: 1 (25-49% inhibition) | Plant Response Index (E) ([3]; Table II, 2 WAT, 11.2 kg/h): 3 (75-99% inhibition) | Plant Response Index (E) [3, 6]: 3 (75-99% inhibition) | Plant Response Index (E) ([3]; Table II, 4 WAT, 5.6 kg/h): 2 (50-74% inhibition) | Plant Response Index (E) [3, 7]: 3 (75-99% inhibition) | Plant Response Index (E) ([3]; Table II, 4 WAT, 11.2 kg/h): 4 (100% inhibition) | Plant Response Index (E) [3, 8]: 4 (100% inhibition) | Plant Response Index (E) ([3]; Table III, 2 WAT, 1.1 kg/h): 3 (75-99% inhibition) | Plant Response Index (E) [3, 9]: 3 (75-99% inhibition) | Plant Response Index (E) ([3]; Table III, 2 WAT, 5.6 kg/h): 3 (75-99% inhibition) | Plant Response Index (E) [3, 13]: 3 (75-99% inhibition) | Plant Response Index (E) ([3]; Table III, 2 WAT, .28 kg/h): 3 (75-99% inhibition) | Plant Response Index (E) [3, 10]: 1 (25-49% inhibition) | Plant Response Index (E) ([3]; Table III, 4 WAT, 1.1 kg/h): 3 (75-99% inhibition) | Plant Response Index (E) [3, 11]: 4 (100% inhibition) | Plant Response Index (E) ([3]; Table III, 4 WAT, 5.6 kg/h): 3 (75-99% inhibition) | Plant Response Index (E) [3, 14]: 4 (100% inhibition) | Plant Response Index (E) [3, 12]: 1 (25-49% inhibition) | Plant Response Index (J) ([4]; Table II, 2 WAT, 5.6 kg/h): 0 (0-24% inhibition) | Plant Response Index (J) [4, 5]: 0 (0-24% inhibition) | Plant Response Index (J) ([4]; Table II, 2 WAT, 11.2 kg/h): 0 (0-24% inhibition) | Plant Response Index (J) [4, 6]: 0 (0-24% inhibition) | Plant Response Index (J) ([4]; Table II, 4 WAT, 5.6 kg/h): 0 (0-24% inhibition) | Plant Response Index (J) [4, 7]: 0 (0-24% inhibition) | Plant Response Index (J) ([4]; Table II, 4 WAT, 11.2 kg/h): 1 (25-49% inhibition) | Plant Response Index (J) [4, 8]: 0 (0-24% inhibition) | Plant Response Index (J) ([4]; Table III, 2 WAT, 1.1 kg/h): 1 (25-49% inhibition) | Plant Response Index (J) [4, 9]: 1 (25-49% inhibition) | Plant Response Index (J) ([4]; Table III, 2 WAT, 5.6 kg/h): 1 (25-49% inhibition) | Plant Response Index (J) [4, 13]: 1 (25-49% inhibition) | Plant Response Index (J) ([4]; Table III, 2 WAT, .28 kg/h): 1 (25-49% inhibition) | Plant Response Index (J) [4, 10]: 0 (0-24% inhibition) | Plant Response Index (J) ([4]; Table III, 4 WAT, 1.1 kg/h): 1 (25-49% inhibition) | Plant Response Index (J) [4, 11]: 1 (25-49% inhibition) | Plant Response Index (J) ([4]; Table III, 4 WAT, 5.6 kg/h): 3 (75-99% inhibition) | Plant Response Index (J) [4, 14]: 2 (50-74% inhibition)
